Assay results: US20250313546A1, “NUCLEIC ACID BINDERS” (UNIVERSITY OF STRATHCLYDE, priority 2022, published 2025)
Values after ≈ are worked out from the molar mass of the structure shown.

What was measured:
[1] = test system: Enterococcus faecalis (ATCC 51299); assay: Antibacterial MIC, broth microdilution (CLSI); format: cell-based; conditions: for MIC80: Enterococcus faecalis, ATCC51299, read-out: MIC80 E. faecalis
[2] = test system: Escherichia coli (ATCC 25922); assay: Antibacterial MIC, broth microdilution (CLSI); format: cell-based; conditions: Escherichia coli, ATCC25922; read-out: MIC80 E. coli
T. vaginalis = assay: Trichomonas resorufin assay; format: cell-based; conditions: for IC50: Trichomonas vaginalis, read-out: IC50 T. vaginalis
[3] = test system: Staphylococcus aureus (ATCC 43300); assay: Antibacterial MIC, broth microdilution (CLSI); format: cell-based; conditions: for MIC80: Staphylococcus aureus, ATCC43300, read-out: MIC80 S. aureus
[4] = test system: PolyAU double stranded RNA; assay: Fluorescence intercalator displacement (FID) assay, SYBR-safe probe; conditions: 20 μM compound, 30° C., lower % = stronger binding
Protocol: (§1) The ability of compounds of the invention to bind to DNA and RNA was assessed using a fluorescence intercalator displacement assay. Genomic double stranded DNA (salmon) or PolyAU double stranded RNA is treated with probe molecule (Sybr-Safe) that increases its fluorescence upon binding to nucleic acids.
(§2) polyAU RNA (Polyadenylic acid—Polyuridylic acid sodium salt, double-stranded homopolymer, P1537, Merck) or genomic DNA (Deoxyribonucleic acid sodium salt from salmon testes, D1626, Merck) was dissolved in 1 mM pH 7.4 phosphate buffer (containing 0.27 mM potassium chloride, 13.7 mM sodium chloride) to a concentration of 1 mg/mL in, SybrSafe (SYBR® Safe DNA Gel Stain, ×10,000 in DMSO, S33102 Invitrogen) was used as supplied by the manufacturer in DMSO, and compounds of the invention were prepared as 10 mM stocks in DMSO. These stock solutions were diluted appropriately with each other and 1 mM phosphate buffer to give test solutions comprised of 20 μM compound of the invention, 12500-fold dilution of SybrSafe and 3.76 ng/mL RNA/DNA. Control solutions of RNA/DNA and SybrSafe, RNA/DNA, and SybrSafe at these concentrations were also prepared. Test and control solutions were heated to 30° C. and the fluorescence of each solution was measured using the SYBER filter setting of a StepOnePlus using melt analysis mode (StepOne Software v2.3). The reduction of fluorescence due to the binding of the compound of the invention to the RNA/DNA was calculated as a normalised percentage based on the fluorescence measured due to the control with SybrSafe and RNA/DNA as maximum and the control with only SybrSafe as minimum.
(§3) A reduction in normalised % is indicative of probe displacement and thus strong nucleic acid binding.

[5] = test system: Genomic double stranded DNA (salmon); assay: as above; conditions: 20 μM compound, 30° C., lower % = stronger binding
Protocol: as §1, §2, §3

[6] = test system: A. fumigatus A1160 (MFIG001); conditions: Aspergillus fumigatus, read-out: MIC99 A. fumigatus A1160
C. neoformans (F10025) = conditions: Cryptococcus neoformans, read-out: MIC99 C. neoformans
Protocol: The Minimum Inhibitory Concentration (MIC, at 99% inhibition) of the compounds was determined using the broth microdilution method as recommended by EUCAST (EUCAST Definitive Document E.DEF 9.3.2, Method for the determination of broth dilution minimum inhibitory concentrations of antifungal agents for conidia forming moulds and EUCAST Definitive Document E.DEF 7.3.2 Method for the determination of broth dilution minimum inhibitory concentrations of antifungal agents for yeasts).

[7] = test system: Candida glabrata (ACPF3309); conditions: Nakaseomyces glabratus, read-out: MIC99 Candida glabrata
[8] = SI, IC50 (μM)/MIC80 (μM), HEK293 cytotoxicity, Amides
[9] = SI, IC50 (μM)/MIC80 (μM), HEK293 cytotoxicity, numeric value
[10] = SI, IC50 (μM)/MIC80 (μM), HEK293 cytotoxicity, Alkyl Amidines and NH Pyrroles

Compound | MIC80 [1] | MIC80 [2] | IC50 (T. vaginalis) | MIC80 [3] | % Normalised Fluorescence with polyAU RNA [4] | % Normalised Fluorescence with gDNA [5] | E. faecalis Selectivity Indices, Group [1, 8] | E. faecalis Selectivity Index (SI) [1, 9] | T. vaginalis Selectivity Indices, Group (T. vaginalis; SI, IC50 (μM)/IC50 (μM), HEK293 cytotoxicity, Amides) | T. vaginalis Selectivity Index (SI) (T. vaginalis; SI, IC50 (μM)/IC50 (μM), HEK293 cytotoxicity, numeric value) | S. aureus Selectivity Indices, Group [3, 8] | MIC99 [6] | S. aureus Selectivity Indices, Group [3, 10] | MIC99 (C. neoformans (F10025)) | MIC99 [7] | E. faecalis Selectivity Indices, Group [1, 10] | T. vaginalis Selectivity Indices, Group (T. vaginalis; SI, IC50 (μM)/IC50 (μM), HEK293 cytotoxicity, Alkyl Amidines and NH Pyrroles) | S. aureus Selectivity Index (SI) [3, 9] | T. vaginalis Selectivity Indices, Group (T. vaginalis; SI, IC50 (μM)/IC50 (μM), HEK293 cytotoxicity, Quaternary ammoniums) | S. aureus Selectivity Indices, Group ([3]; SI, IC50 (μM)/MIC80 (μM), HEK293 cytotoxicity, Quaternary ammoniums)
CC(C)NC(=O)c1cc(NC(=O)c2cc(NC(=O)c3ccc(/C=C/c4cnc5ccccc5c4)cc3)cn2C)cn1C [IVa4, (E)-N-isopropyl-1-methyl-4-(1-methyl-4-(4-(2-(quinolin-3-yl)vinyl)benzamido)-1H-pyrrole-2-carboxamido)-1H-pyrrole-2-carboxamide] | 25 to 100 µM (≈ 14 to 56.1 µg/mL) | > 100 µM | 5 to 50 µM | < 5 µM | 81% | 15% |  |  |  |  |  |  |  |  |  |  |  |  |  | 
CCCCNC(=O)c1cc(NC(=O)c2cc(NC(=O)c3ccc(/C=C/c4cnc5ccccc5c4)cc3)cn2C)cn1C [IVa5, (E)-N-butyl-1-methyl-4-(1-methyl-4-(4-(2-(quinolin-3-yl)vinyl)benzamido)-1H-pyrrole-2-carboxamido)-1H-pyrrole-2-carboxamide] | < 5 µM | > 100 µM | 1 to 5 µM | < 5 µM | 12% | 51% | C (Group: C, 1.5 < SI <= 5) | 2 | C (Group C: SI > 0.5) | 2 | B (Group B: 1.4 < SI <= 3) |  |  |  |  |  |  |  |  | 
Cn1cc(NC(=O)c2cc(NC(=O)c3ccc(/C=C/c4cnc5ccccc5c4)cc3)cn2C)cc1C(=O)NCCOCCOCCO [IVa7, (E)-N-(2-(2-(2-hydroxyethoxy)ethoxy)ethyl)-1-methyl-4-(1-methyl-4-(4-(2-(quinolin-3-yl)vinyl)benzamido)-1H-pyrrole-2-carboxamido)-1H-pyrrole-2-carboxamide] | > 100 µM | > 100 µM | 5 to 50 µM | 5 to 25 µM (≈ 3.25 to 16.3 µg/mL) | 92% | 65% |  |  |  |  |  |  |  |  |  |  |  |  |  | 
[H]/N=C(\CCNC(=O)c1cc(NC(=O)c2cc(NC(=O)c3ccc(C=Cc4ccc5nonc5c4)cc3)cn2C)cn1C)NC [Ia3, (E)-4-(4-(2-(benzo[c][1,2,5]oxadiazol-5-yl)vinyl)benzamido)-N-(5-((3-imino-3-(methylamino)propyl)carbamoyl)-1-methyl-1H-pyrrol-3-yl)-1-methyl-1H-pyrrole-2-carboxamide] |  | > 100 µM |  | < 5 µM | 38% | 13% |  |  |  |  |  | < 5 µg/mL |  |  |  |  |  |  |  | 
C/N=C(/CCNC(=O)c1cc(NC(=O)c2cc(NC(=O)c3ccc(/C=C/c4ccc(C(F)(F)F)cc4)cc3)cn2C)cn1C)NC [Ia5, 1-methyl-4-(1-methyl-4-(4-((E)-4-(trifluoromethyl)styryl)benzamido)-1H-pyrrole-2-carboxamido)-N—((Z)-3-(methylamino)-3-(methylimino)propyl)-1H-pyrrole-2-carboxamide] |  | > 100 µM |  | < 5 µM | 12% | 21% |  |  |  |  |  | 25 to 50 µg/mL (≈ 39.5 to 78.9 µM) |  |  |  |  |  |  |  | 
C/N=C(/CCNC(=O)c1cc(NC(=O)c2cc(NC(=O)c3ccc(/C=C/c4ccc5ccccc5c4)cc3)cn2C)cn1C)NC [Ia7, 1-methyl-4-(1-methyl-4-(4-((E)-2-(naphthalen-2-yl)vinyl)benzamido)-1H-pyrrole-2-carboxamido)-N—((Z)-3-(methylamino)-3-(methylimino)propyl)-1H-pyrrole-2-carboxamide] |  | > 100 µM |  | < 5 µM | 24% | 10% |  |  |  |  |  | 25 to 50 µg/mL (≈ 40.6 to 81.2 µM) |  |  |  |  |  |  |  | 
COc1cccc(/C=C/c2ccc(C(=O)Nc3cc(C(=O)Nc4cc(C(=O)NCCC(=N)NC(C)C)n(C)c4)n(C)c3)cc2)c1 [Ia19, (E)-N-(3-imino-3-(isopropylamino)propyl)-4-(4-(4-(3-methoxystyryl)benzamido)-1-methyl-1H-pyrrole-2-carboxamido)-1-methyl-1H-pyrrole-2-carboxamide] | 5 to 25 µM (≈ 3.05 to 15.2 µg/mL) | 25 to 100 µM (≈ 15.2 to 61 µg/mL) | 5 to 50 µM | 5 to 25 µM (≈ 3.05 to 15.2 µg/mL) | 8% | 10% |  |  |  |  |  |  | B (Group B: 3 < SI <= 5) |  |  |  |  |  |  | 
COc1cccc(/C=C/c2ccc(C(=O)Nc3cc(C(=O)Nc4cc(C(=O)NCCC(=N)NC(C)C)n(C)c4)n(C)c3)cn2)c1 [Ia23, (E)-N-(5-((5-((3-imino-3-(isopropylamino)propyl)carbamoyl)-1-methyl-1H-pyrrol-3-yl)carbamoyl)-1-methyl-1H-pyrrol-3-yl)-6-(3-methoxystyryl)nicotinamide] | > 100 µM | > 100 µM | 5 to 50 µM | 25 to 100 µM (≈ 15.3 to 61.1 µg/mL) | 25% | 41% |  |  |  |  |  |  |  |  |  |  |  |  |  | 
[H]/N=C(\CCNC(=O)c1cc(NC(=O)c2cc(NC(=O)c3ccc(C=Cc4ccc5nonc5c4)cc3)cn2C)cn1C)NCCCN(C)C [Ia46, (E)-4-(4-(2-(benzo[c][1,2,5]oxadiazol-5-yl)vinyl)benzamido)-N-(5-((3-((3-(dimethylamino)propyl)amino)-3-iminopropyl)carbamoyl)-1-methyl-1H-pyrrol-3-yl)-1-methyl-1H-pyrrole-2-carboxamide] | > 100 µM | > 100 µM | 5 to 50 µM | 25 to 100 µM (≈ 16.6 to 66.5 µg/mL) | 2% | 10% |  |  |  |  |  |  |  |  |  |  |  |  |  | 
[H]/N=C(\CCNC(=O)c1cc(NC(=O)c2cc(NC(=O)c3ccc(C=Cc4ccc5nonc5c4)cc3)cn2C)cn1C)N1CCN(C)CC1 [Ib4, (E)-4-(4-(2-(benzo[c][1,2,5]oxadiazol-5-yl)vinyl)benzamido)-N-(5-((3-imino-3-(4-methylpiperazin-1-yl)propyl)carbamoyl)-1-methyl-1H-pyrrol-3-yl)-1-methyl-1H-pyrrole-2-carboxamide] | < 5 µM | > 100 µM |  | < 5 µM | 5% | 20% |  |  |  |  |  |  |  | 5 to 25 µg/mL (≈ 7.54 to 37.7 µM) | 25 to 50 µg/mL (≈ 37.7 to 75.4 µM) |  |  |  |  | 
Cn1cc(NC(=O)c2cc(NC(=O)c3ccc(/C=C/c4cnc5ccccc5c4)cc3)cn2C)cc1C(=O)NCCC(=N)N1CCSCC1 [Ib7, (E)-N-(3-imino-3-thiomorpholinopropyl)-1-methyl-4-(1-methyl-4-(4-(2-(quinolin-3-yl)vinyl)benzamido)-1H-pyrrole-2-carboxamido)-1H-pyrrole-2-carboxamide] | < 5 µM | > 100 µM | 1 to 5 µM | < 5 µM | 7% | 22% |  |  |  |  |  |  | D (D: SI > 10) | 5 to 25 µg/mL (≈ 7.41 to 37 µM) | 5 to 25 µg/mL (≈ 7.41 to 37 µM) | C (Group C: 5 < SI <= 10) | B (Group B: 8 < SI <= 16) | 26 |  | 
CCCCCC[N+](C)(C)CCNC(=O)c1cc(NC(=O)c2cc(NC(=O)c3ccc(/C=C/c4cnc5ccccc5c4)cc3)cn2C)cn1C [Ic5, (E)-N,N-dimethyl-N-(2-(1-methyl-4-(1-methyl-4-(4-(2-(quinolin-3-yl)vinyl)benzamido)-1H-pyrrole-2-carboxamido)-1H-pyrrole-2-carboxamido)ethyl)hexan-1-aminium] | 5 to 25 µM | > 100 µM | 1 to 5 µM | < 5 µM |  |  |  |  |  |  |  | > 50 µg/mL |  |  | 5 to 25 µg/mL |  |  |  | B (Group B: 0.8 < SI <= 1.5) | C (Group C: 5 < SI <= 10)
